ChEMBL document CHEMBL3244079, “Synthesis and antiarrhythmic activity of 2-dialkylaminoalkyl-9-phenyl-1H-indeno[2,1-c]pyridine derivatives” (J Med Chem, 1978)
Calls of active or inactive are those of the source. The calls are words filed in the database; no cut-off is given here.

These molecules were tested on Canis familiaris (assay: Antiarrhythmic activity in iv dosed mongrel dog assessed as reduction in ouabain-induced ventricular arrhythmia measured as duration of action at MED by electrocardiographic analysis). Conditions: not given.
Assay type: functional, Canis lupus familiaris, Heart
`CC(C)N(CCC(C(N)=O)(c1ccccc1)c1ccccn1)C(C)C.O=P(O)(O)O` (stereo not drawn) [DISOPYRAMIDE PHOSPHATE] was tested, and the Time was >30 min.
`Cl.O.c1ccc([C@H]2c3ccccc3[C@@H]3CCN(CCCN4CCCCC4)C[C@H]23)cc1` (relative stereo) showed a Time of 30 min.
In the case of `CCN(CC)CCCN1CCC(O)(c2ccccc2)C(C(=O)c2ccccc2)C1` (stereo not drawn), the Time is reported as 32 min.
`Br.CN(C)CCCN1CC=C2C(=C(c3ccccc3)c3ccccc32)C1.O` was tested, and the Time was 40 min.
With `C=C[C@H]1CN2CC[C@H]1C[C@@H]2[C@@H](O)c1ccnc2ccc(OC)cc12` [QUINIDINE] the Time was >30 min.
With `Br.CCN(CC)CCCN1CC=C2C(=C(c3ccccc3)c3ccccc32)C1.O` the Time was 35 min.
Work on `CCN(CC)CCCN1CC[C@H]2c3ccccc3[C@@H](c3ccccc3)[C@H]2C1.Cl.O` (relative stereo) yielded a Time of 15 min.
With `CN(C)CCCN1CC[C@H]2c3ccccc3[C@@H](c3ccccc3)[C@H]2C1.Cl.O` (relative stereo) the Time was 15 min.
In the case of `Br.CN(C)CCN1CC[C@H]2c3ccccc3[C@H](c3ccccc3)[C@H]2C1` (relative stereo), the Time is reported as 17 min.
`Cl.O.c1ccc([C@@H]2c3ccccc3[C@@H]3CCN(CCCN4CCCCC4)C[C@H]23)cc1` (relative stereo) was tested, and the Time was 15 min.
`Br.C1=C2C(=C(c3ccccc3)c3ccccc32)CN(CCCN2CCCCC2)C1.O` was tested, and the Time was 35 min.
`Br.C1=C2C(=C(c3ccccc3)c3ccccc32)CN(Cc2ccccc2)C1` showed a Time of 17 min.
For `Br.c1ccc([C@@H]2c3ccccc3[C@@H]3CCNC[C@H]23)cc1` (relative stereo), the Time was 15 min.
Molecule `O=C(c1ccccc1)C1CN(CCCN2CCCCC2)CCC1(O)c1ccccc1` (stereo not drawn) has a Time of 15 min.
Molecule `Br.CCN(CC)CCCN1CC[C@H]2c3ccccc3[C@H](c3ccccc3)[C@H]2C1.O` (relative stereo) has a Time of 19 min.
`Br.CCN(CC)CCN1CC[C@H]2c3ccccc3[C@@H](c3ccccc3)[C@H]2C1.O` (relative stereo) gave a Time of 25 min.

Species: Canis familiaris
Test: Antiarrhythmic activity in mongrel dog Harris two-stage coronary ligation model assessed as reduction in ectopic beats measured as duration of action at MED by electrocardiographic analysis
Assay type: functional, Canis lupus familiaris, Heart
Conditions: not given
`CC(C)N(CCC(C(N)=O)(c1ccccc1)c1ccccn1)C(C)C.O=P(O)(O)O` (stereo not drawn) [DISOPYRAMIDE PHOSPHATE] gave a Time of 23 min.
With `CCN(CC)CCCN1CCC(O)(c2ccccc2)C(C(=O)c2ccccc2)C1` (stereo not drawn) the Time was 16 min.
Work on `C=C[C@H]1CN2CC[C@H]1C[C@@H]2[C@@H](O)c1ccnc2ccc(OC)cc12` [QUINIDINE] yielded a Time of 23 min.
`Br.CCN(CC)CCCN1CC=C2C(=C(c3ccccc3)c3ccccc32)C1.O` showed a Time of 10 min.
For `CCN(CC)CCCN1CC[C@H]2c3ccccc3[C@@H](c3ccccc3)[C@H]2C1.Cl.O` (relative stereo), the Time was 10 min.
Molecule `CN(C)CCCN1CC[C@H]2c3ccccc3[C@@H](c3ccccc3)[C@H]2C1.Cl.O` (relative stereo) has a Time of 17.5 min.
Work on `Br.C1=C2C(=C(c3ccccc3)c3ccccc32)CN(CCCN2CCCCC2)C1.O` yielded a Time of 12 min.
For `Br.c1ccc([C@@H]2c3ccccc3[C@@H]3CCNC[C@H]23)cc1` (relative stereo), the Time was 12.5 min.
`Br.CCN(CC)CCN1CC[C@H]2c3ccccc3[C@@H](c3ccccc3)[C@H]2C1.O` (relative stereo) gave a Time of 12.5 min.

Species: Canis familiaris
Test: Antiarrhythmic activity in mongrel dog Harris two-stage coronary ligation model assessed as reduction in ectopic beats by electrocardiographic analysis
Assay type: functional
Conditions: Canis lupus familiaris, Heart
With `Br.CN(C)CCCN1CC=C2C(=C(c3ccccc3)c3ccccc32)C1.O` the Activity was “inactive”.
`Br.CN(C)CCN1CC[C@H]2c3ccccc3[C@H](c3ccccc3)[C@H]2C1` (relative stereo) was tested, and the Activity was “inactive”.
With `Cl.O.c1ccc([C@@H]2c3ccccc3[C@@H]3CCN(CCCN4CCCCC4)C[C@H]23)cc1` (relative stereo) the Activity was “inactive”.
For `Br.C1=C2C(=C(c3ccccc3)c3ccccc32)CN(Cc2ccccc2)C1`, the Activity was “inactive”.
With `O=C(c1ccccc1)C1CN(CCCN2CCCCC2)CCC1(O)c1ccccc1` (stereo not drawn) the Activity was “inactive”.

Same assay, conditions: Canis lupus familiaris, Heart, read-out: MED
`CC(C)N(CCC(C(N)=O)(c1ccccc1)c1ccccn1)C(C)C.O=P(O)(O)O` (stereo not drawn) [DISOPYRAMIDE PHOSPHATE] gave a minimal effective dose of 7 mg/kg.
In the case of `CCN(CC)CCCN1CCC(O)(c2ccccc2)C(C(=O)c2ccccc2)C1` (stereo not drawn), the minimal effective dose is reported as 7.5 mg/kg.
In the case of `C=C[C@H]1CN2CC[C@H]1C[C@@H]2[C@@H](O)c1ccnc2ccc(OC)cc12` [QUINIDINE], the minimal effective dose is reported as 12.8 mg/kg.
`Br.CCN(CC)CCCN1CC=C2C(=C(c3ccccc3)c3ccccc32)C1.O` showed a minimal effective dose of 15 mg/kg.
Molecule `CCN(CC)CCCN1CC[C@H]2c3ccccc3[C@@H](c3ccccc3)[C@H]2C1.Cl.O` (relative stereo) has a minimal effective dose of 12.5 mg/kg.
For `CN(C)CCCN1CC[C@H]2c3ccccc3[C@@H](c3ccccc3)[C@H]2C1.Cl.O` (relative stereo), the minimal effective dose was 10 mg/kg.
`Br.C1=C2C(=C(c3ccccc3)c3ccccc32)CN(CCCN2CCCCC2)C1.O` gave a minimal effective dose of 7.5 mg/kg.
For `Br.c1ccc([C@@H]2c3ccccc3[C@@H]3CCNC[C@H]23)cc1` (relative stereo), the minimal effective dose was 15 mg/kg.
`Br.CCN(CC)CCN1CC[C@H]2c3ccccc3[C@@H](c3ccccc3)[C@H]2C1.O` (relative stereo) showed a minimal effective dose of 12.5 mg/kg.

The molecules below were run on Canis familiaris (assay: Antiarrhythmic activity in iv dosed mongrel dog assessed as reduction in ouabain-induced ventricular arrhythmia by electrocardiographic analysis). Conditions: Canis lupus familiaris, Heart.
Assay type: functional
In the case of `CN(C)CCCN1CCC(O)(c2ccccc2)C(C(=O)c2ccccc2)C1` (stereo not drawn), the Activity is reported as “inactive”.
`CCN(CC)CCN1CC[C@H]2c3ccccc3[C@H](c3ccccc3)[C@H]2C1` (relative stereo) was tested, and the Activity was “inactive”.
In the case of `CN(C)CCN1CCC(O)(c2ccccc2)C(C(=O)c2ccccc2)C1` (stereo not drawn), the Activity is reported as “inactive”.
With `CN(C)CCCN1CC[C@H]2c3ccccc3[C@H](c3ccccc3)[C@H]2C1` (relative stereo) the Activity was “inactive”.
In the case of `c1ccc([C@H]2c3ccccc3[C@@H]3CCNC[C@H]23)cc1` (relative stereo), the Activity is reported as “inactive”.

Same assay, conditions: Canis lupus familiaris, Heart, read-out: MED
`CC(C)N(CCC(C(N)=O)(c1ccccc1)c1ccccn1)C(C)C.O=P(O)(O)O` (stereo not drawn) [DISOPYRAMIDE PHOSPHATE] showed a minimal effective dose of 6.6 mg/kg.
With `Cl.O.c1ccc([C@H]2c3ccccc3[C@@H]3CCN(CCCN4CCCCC4)C[C@H]23)cc1` (relative stereo) the minimal effective dose was 10 mg/kg.
`CCN(CC)CCCN1CCC(O)(c2ccccc2)C(C(=O)c2ccccc2)C1` (stereo not drawn) showed a minimal effective dose of 12.5 mg/kg.
`Br.CN(C)CCCN1CC=C2C(=C(c3ccccc3)c3ccccc32)C1.O` showed a minimal effective dose of 15 mg/kg.
Molecule `C=C[C@H]1CN2CC[C@H]1C[C@@H]2[C@@H](O)c1ccnc2ccc(OC)cc12` [QUINIDINE] has a minimal effective dose of 7.5 mg/kg.
`Br.CCN(CC)CCCN1CC=C2C(=C(c3ccccc3)c3ccccc32)C1.O` showed a minimal effective dose of 20 mg/kg.
For `CCN(CC)CCCN1CC[C@H]2c3ccccc3[C@@H](c3ccccc3)[C@H]2C1.Cl.O` (relative stereo), the minimal effective dose was 20 mg/kg.
`CN(C)CCCN1CC[C@H]2c3ccccc3[C@@H](c3ccccc3)[C@H]2C1.Cl.O` (relative stereo) was tested, and the minimal effective dose was 10 mg/kg.
In the case of `Br.CN(C)CCN1CC[C@H]2c3ccccc3[C@H](c3ccccc3)[C@H]2C1` (relative stereo), the minimal effective dose is reported as 20 mg/kg.
With `Cl.O.c1ccc([C@@H]2c3ccccc3[C@@H]3CCN(CCCN4CCCCC4)C[C@H]23)cc1` (relative stereo) the minimal effective dose was 15 mg/kg.
Work on `Br.C1=C2C(=C(c3ccccc3)c3ccccc32)CN(CCCN2CCCCC2)C1.O` yielded a minimal effective dose of 10 mg/kg.
`Br.C1=C2C(=C(c3ccccc3)c3ccccc32)CN(Cc2ccccc2)C1` was tested, and the minimal effective dose was 15 mg/kg.
`Br.c1ccc([C@@H]2c3ccccc3[C@@H]3CCNC[C@H]23)cc1` (relative stereo) showed a minimal effective dose of 17.5 mg/kg.
`O=C(c1ccccc1)C1CN(CCCN2CCCCC2)CCC1(O)c1ccccc1` (stereo not drawn) gave a minimal effective dose of 10 mg/kg.
With `Br.CCN(CC)CCCN1CC[C@H]2c3ccccc3[C@H](c3ccccc3)[C@H]2C1.O` (relative stereo) the minimal effective dose was 15 mg/kg.
`Br.CCN(CC)CCN1CC[C@H]2c3ccccc3[C@@H](c3ccccc3)[C@H]2C1.O` (relative stereo) showed a minimal effective dose of 10 mg/kg.

Species: Canis familiaris
Test: Toxicity in mongrel dog Harris two-stage coronary ligation model
Assay type: organism-based, Canis lupus familiaris
Conditions: in vivo
With `Cl.O.c1ccc([C@H]2c3ccccc3[C@@H]3CCN(CCCN4CCCCC4)C[C@H]23)cc1` (relative stereo) the Activity was “Toxic”.

The molecules below were run on Heart (assay: Antiarrhythmic activity in rabbit heart assessed as reduction in aconitine-induced ventricular arrhythmia at 40 mg/l after 30 mins by electrocardiographic analysis). Conditions: Oryctolagus cuniculus.
Assay type: functional, tissue-based
In the case of `CN(C)CCCN1CCC(O)(c2ccccc2)C(C(=O)c2ccccc2)C1` (stereo not drawn), the Activity is reported as “Active”.
For `Cl.O.c1ccc([C@H]2c3ccccc3[C@@H]3CCN(CCCN4CCCCC4)C[C@H]23)cc1` (relative stereo), the Activity was “Active”.
In the case of `CCN(CC)CCN1CC[C@H]2c3ccccc3[C@H](c3ccccc3)[C@H]2C1` (relative stereo), the Activity is reported as “Active”.
`Br.CN(C)CCCN1CC=C2C(=C(c3ccccc3)c3ccccc32)C1.O` was tested, and the Activity was “Active”.
For `CN(C)CCN1CCC(O)(c2ccccc2)C(C(=O)c2ccccc2)C1` (stereo not drawn), the Activity was “Active”.
For `C=C[C@H]1CN2CC[C@H]1C[C@@H]2[C@@H](O)c1ccnc2ccc(OC)cc12` [QUINIDINE], the Activity was “Active”.
With `Br.CCN(CC)CCCN1CC=C2C(=C(c3ccccc3)c3ccccc32)C1.O` the Activity was “Active”.
For `CCN(CC)CCCN1CC[C@H]2c3ccccc3[C@@H](c3ccccc3)[C@H]2C1.Cl.O` (relative stereo), the Activity was “Active”.
`CN(C)CCCN1CC[C@H]2c3ccccc3[C@@H](c3ccccc3)[C@H]2C1.Cl.O` (relative stereo) was tested, and the Activity was “Active”.
In the case of `Br.CN(C)CCN1CC[C@H]2c3ccccc3[C@H](c3ccccc3)[C@H]2C1` (relative stereo), the Activity is reported as “Active”.
For `Br.C1=C2C(=C(c3ccccc3)c3ccccc32)CN(CCCN2CCCCC2)C1.O`, the Activity was “Active”.
In the case of `Br.C1=C2C(=C(c3ccccc3)c3ccccc32)CN(Cc2ccccc2)C1`, the Activity is reported as “Active”.
For `CN(C)CCCN1CC[C@H]2c3ccccc3[C@H](c3ccccc3)[C@H]2C1` (relative stereo), the Activity was “Active”.
With `Br.c1ccc([C@@H]2c3ccccc3[C@@H]3CCNC[C@H]23)cc1` (relative stereo) the Activity was “Active”.
`O=C(c1ccccc1)C1CN(CCCN2CCCCC2)CCC1(O)c1ccccc1` (stereo not drawn) was tested, and the Activity was “Active”.
With `c1ccc([C@H]2c3ccccc3[C@@H]3CCNC[C@H]23)cc1` (relative stereo) the Activity was “Active”.
In the case of `Br.CCN(CC)CCN1CC[C@H]2c3ccccc3[C@@H](c3ccccc3)[C@H]2C1.O` (relative stereo), the Activity is reported as “Active”.
